The MIC is the least concentration at which growth counts as inhibited.

Values after ≈ are worked out from the molar mass of the structure shown. Like-named read-outs stand apart in the source and are kept apart here.

Assay [1] concerns E. coli strain 25922. The assay is described as follows: MIC by broth microdilution, E. coli strain 25922. It is filed as cell-based. In a few lines:
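CLSI broth microdilution in cation-adjusted Mueller-Hinton broth, inoculum about 5×10^5 CFU/mL, 10% DMSO from the diluted series, 20 h at 35-37° C. MIC is the lowest concentration preventing visible growth, read by eye and at 600 nm.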
Background: Dilution methods test growth across graded concentrations, often in twofold steps.

Assay [2] has as its system E. coli containing KPC-2. The assay is described as follows: MIC by broth microdilution, E. coli containing KPC-2 (Ec KPC2 Iso). Format: cell-based. Conditions: Escherichia coli, read-out: Ec KPC2 Iso (MIC), E. coli containing KPC-2 (carbapenemase from Klebsiella pneumoniae). In a few lines: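 Host E. coli BW25113 pspB carrying multicopy pBAD18-kan plasmid with constitutive TEM-promoter KPC-2 expression (periplasmic signal sequence); broth microdilution per CLSI in cation-adjusted Mueller-Hinton broth, inoculum ~5×10^5 CFU/mL, compounds twofold serially diluted from DMSO masters (10% DMSO in dilution series added).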

[3] abbreviates: Escherichia coli, 25922, E. coli strain 25922, read-out: Ec 25922 (MIC).

As for `CC(C)(O/N=C(\C(=O)N[C@@H]1C(=O)N(S(=O)(=O)O)[C@@H]1Cn1cc(CNC(=N)N)nn1)c1csc(N)n1)C(=O)O` [Example 45, 2-(((Z)-(1-(2-aminothiazol-4-yl)-2-(((2R,3S)-2-((4-(guanidinomethyl)-1H-1,2,3-triazol-1-yl)methyl)-4-oxo-1-sulfoazetidin-3-yl)amino)-2-oxoethylidene)amino)oxy)-2-methylpropanoic acid], the minimal inhibitory concentration (MIC) in assay [1] (Escherichia coli, 25922, read-out: Ec 25922 (MIC)) was found to be 0.5 mg/L (≈ 0.872 µM); in assay [2], 0.5 mg/L (≈ 0.872 µM).
Regarding `CC(C)(O/N=C(\C(=O)N[C@@H]1C(=O)N(S(=O)(=O)O)[C@@H]1Cn1cc(CO)nn1)c1csc(N)n1)C(=O)O` [Example 47, 2-(((Z)-(1-(2-aminothiazol-4-yl)-2-(((2R,3S)-2-((4-(hydroxymethyl)-1H-1,2,3-triazol-1-yl)methyl)-4-oxo-1-sulfoazetidin-3-yl)amino)-2-oxoethylidene)amino)oxy)-2-methylpropanoic acid], the results for the minimal inhibitory concentration (MIC) in assay [1] (setting [3]) and in assay [2] were 2 mg/L (≈ 3.76 µM) and 5 mg/L (≈ 9.39 µM), respectively.
In the case of `Cc1c[n+](C)ccc1-c1cn(C[C@@H]2[C@H](NC(=O)/C(=N\OC(C)(C)C(=O)O)c3csc(N)n3)C(=O)N2S(=O)(=O)O)nn1` [Example 49, (2R,3S)-3-((Z)-2-(2-aminothiazol-4-yl)-2-(((2-carboxypropan-2-yl)oxy)imino)acetamido)-2-((4-(1,3-dimethylpyridin-1-ium-4-yl)-1H-1,2,3-triazol-1-yl)methyl)-4-oxoazetidine-1-sulfonate], the figures for the MIC in assay [1] (setting [3]) and in assay [2] were 2 mg/L and 16 mg/L, respectively.
Regarding `CC(C)(O/N=C(\C(=O)N[C@@H]1C(=O)N(S(=O)(=O)O)[C@@H]1Cn1ccnn1)c1csc(N)n1)C(=O)O` [Example 50, 2-(((Z)-(2-(((2R,3S)-2-((1H-1,2,3-triazol-1-yl)methyl)-4-oxo-1-sulfoazetidin-3-yl)amino)-1-(2-aminothiazol-4-yl)-2-oxoethylidene)amino)oxy)-2-methylpropanoic acid], the values for the MIC in assay [1] (setting [3]) and in assay [2] were 2 mg/L (≈ 3.98 µM) and 2.8 mg/L (≈ 5.57 µM), respectively.
Regarding `CC(C)(O/N=C(\C(=O)N[C@@H]1C(=O)N(S(=O)(=O)O)[C@@H]1Cn1cc(C(=O)O)nn1)c1csc(N)n1)C(=O)O` [Example 51, 1-(((2R,3S)-3-((Z)-2-(2-aminothiazol-4-yl)-2-(((2-carboxypropan-2-yl)oxy)imino)acetamido)-4-oxo-1-sulfoazetidin-2-yl)methyl)-1H-1,2,3-triazole-4-carboxylic acid], the MIC was above 64 mg/L in assay [1] (setting [3]) and 16 mg/L (≈ 29.3 µM) in assay [2].
With `CC(C)(O/N=C(\C(=O)N[C@@H]1C(=O)N(S(=O)(=O)O)[C@@H]1Cn1ncc(CN)n1)c1csc(N)n1)C(=O)O` [Example 52, 2-(((Z)-(2-(((2R,3S)-2-((4-(aminomethyl)-2H-1,2,3-triazol-2-yl)methyl)-4-oxo-1-sulfoazetidin-3-yl)amino)-1-(2-aminothiazol-4-yl)-2-oxoethylidene)amino)oxy)-2-methylpropanoic acid], the MIC in assay [1] (setting [3]) stood at 0.5 mg/L (≈ 0.941 µM); in assay [2], 1 mg/L (≈ 1.88 µM).
As for `CC(C)(O/N=C(\C(=O)N[C@@H]1C(=O)N(S(=O)(=O)O)[C@@H]1Cn1ncc(CNC(=N)N)n1)c1csc(N)n1)C(=O)O` [Example 53, 2-(((Z)-(1-(2-aminothiazol-4-yl)-2-(((2R,3S)-2-((4-(guanidinomethyl)-2H-1,2,3-triazol-2-yl)methyl)-4-oxo-1-sulfoazetidin-3-yl)amino)-2-oxoethylidene)amino)oxy)-2-methylpropanoic acid], the MIC in assay [1] (setting [3]) and in assay [2] was 1 mg/L (≈ 1.74 µM) each time.
`CC(C)(O/N=C(\C(=O)N[C@@H]1C(=O)N(S(=O)(=O)O)[C@@H]1Cn1nccn1)c1csc(N)n1)C(=O)O` [Example 54, 2-(((Z)-(2-(((2R,3S)-2-((2H-1,2,3-triazol-2-yl)methyl)-4-oxo-1-sulfoazetidin-3-yl)amino)-1-(2-aminothiazol-4-yl)-2-oxoethylidene)amino)oxy)-2-methylpropanoic acid]: the MIC in assay [1] (setting [3]) turned out to be 2 mg/L (≈ 3.98 µM); in assay [2], 1 mg/L (≈ 1.99 µM).
As to `Cc1cnn(C[C@@H]2[C@H](NC(=O)/C(=N\OC(C)(C)C(=O)O)c3csc(N)n3)C(=O)N2S(=O)(=O)O)n1` [Example 55, 2-(((Z)-(1-(2-aminothiazol-4-yl)-2-(((2R,3S)-2-((4-methyl-2H-1,2,3-triazol-2-yl)methyl)-4-oxo-1-sulfoazetidin-3-yl)amino)-2-oxoethylidene)amino)oxy)-2-methylpropanoic acid], the MIC in assay [1] (setting [3]) came out at 16 mg/L (≈ 31 µM); in assay [2], 4 mg/L (≈ 7.74 µM).
As for `CC(C)(O/N=C(\C(=O)N[C@@H]1C(=O)N(S(=O)(=O)O)[C@@H]1Cn1cnnc1)c1csc(N)n1)C(=O)O` [Example 56, 2-(((Z)-(2-(((2R,3S)-2-((4H-1,2,4-triazol-4-yl)methyl)-4-oxo-1-sulfoazetidin-3-yl)amino)-1-(2-aminothiazol-4-yl)-2-oxoethylidene)amino)oxy)-2-methylpropanoic acid], the MIC in assay [1] (setting [3]) was found to be 4 mg/L (≈ 7.96 µM); in assay [2], 16 mg/L (≈ 31.8 µM).
The matching figures for `CC(C)(O/N=C(\C(=O)N[C@@H]1C(=O)N(S(=O)(=O)O)[C@@H]1CN1C[C@@H](CN)OC1=O)c1csc(N)n1)C(=O)O` [Example 57, 2-(((Z)-(2-(((2R,3S)-2-(((R)-5-(aminomethyl)-2-oxooxazolidin-3-yl)methyl)-4-oxo-1-sulfoazetidin-3-yl)amino)-1-(2-aminothiazol-4-yl)-2-oxoethylidene)amino)oxy)-2-methylpropanoic acid]: 0.5 mg/L (≈ 0.91 µM) and 1 mg/L (≈ 1.82 µM).
`CC(C)(O/N=C(\C(=O)N[C@@H]1C(=O)N(S(=O)(=O)O)[C@@H]1CN1C[C@H](CN)OC1=O)c1csc(N)n1)C(=O)O` [Example 58, 2-(((Z)-(2-(((2R,3S)-2-(((S)-5-(aminomethyl)-2-oxooxazolidin-3-yl)methyl)-4-oxo-1-sulfoazetidin-3-yl)amino)-1-(2-aminothiazol-4-yl)-2-oxoethylidene)amino)oxy)-2-methylpropanoic acid]: the MIC in assay [1] (setting [3]) is 2 mg/L (≈ 3.64 µM); in assay [2], 1 mg/L (≈ 1.82 µM).
In the case of `CC(C)(O/N=C(\C(=O)N[C@@H]1C(=O)N(S(=O)(=O)O)[C@@H]1CN1C[C@H](CNC(=N)N)OC1=O)c1csc(N)n1)C(=O)O` [Example 59, 2-(((Z)-(1-(2-aminothiazol-4-yl)-2-(((2R,3S)-2-(((S)-5-(guanidinomethyl)-2-oxooxazolidin-3-yl)methyl)-4-oxo-1-sulfoazetidin-3-yl)amino)-2-oxoethylidene)amino)oxy)-2-methylpropanoic acid], the MIC in assay [1] (setting [3]) and in assay [2] was 16 mg/L (≈ 27 µM) throughout.
With `Cc1ncn(C[C@@H]2[C@H](NC(=O)/C(=N\OC(C)(C)C(=O)O)c3csc(N)n3)C(=O)N2S(=O)(=O)O)n1` [Example 60, 2-(((Z)-(1-(2-aminothiazol-4-yl)-2-(((2R,3S)-2-((3-methyl-1H-1,2,4-triazol-1-yl)methyl)-4-oxo-1-sulfoazetidin-3-yl)amino)-2-oxoethylidene)amino)oxy)-2-methylpropanoic acid], the MIC in assay [1] (setting [3]) and in assay [2] was 8 mg/L (≈ 15.5 µM) each time.
On to `Cc1ncnn1C[C@@H]1[C@H](NC(=O)/C(=N\OC(C)(C)C(=O)O)c2csc(N)n2)C(=O)N1S(=O)(=O)O` [Example 61, 2-(((Z)-(1-(2-aminothiazol-4-yl)-2-(((2R,3S)-2-((5-methyl-1H-1,2,4-triazol-1-yl)methyl)-4-oxo-1-sulfoazetidin-3-yl)amino)-2-oxoethylidene)amino)oxy)-2-methylpropanoic acid], for which the minimal inhibitory concentration (MIC) worked out at 8 mg/L (≈ 15.5 µM) in assay [1] (setting [3]) and 2 mg/L (≈ 3.87 µM) in assay [2].
Regarding `CC(C)(O/N=C(\C(=O)N[C@@H]1C(=O)N(S(=O)(=O)O)[C@@H]1Cn1ncc(CNC=N)n1)c1csc(N)n1)C(=O)O` [Example 62, 2-(((Z)-(1-(2-aminothiazol-4-yl)-2-(((2R,3S)-2-((4-(formimidamidomethyl)-2H-1,2,3-triazol-2-yl)methyl)-4-oxo-1-sulfoazetidin-3-yl)amino)-2-oxoethylidene)amino)oxy)-2-methylpropanoic acid], the MIC in assay [1] (setting [3]) is 0.5 mg/L (≈ 0.895 µM); in assay [2] it was 2 mg/L (≈ 3.58 µM).
On to `CC(C)(O/N=C(\C(=O)N[C@@H]1C(=O)N(S(=O)(=O)O)[C@@H]1CN1C[C@@H](CO)OC1=O)c1csc(N)n1)C(=O)O` [Example 63, 2-(((Z)-(1-(2-aminothiazol-4-yl)-2-(((2R,3S)-2-(((S)-5-(hydroxymethyl)-2-oxooxazolidin-3-yl)methyl)-4-oxo-1-sulfoazetidin-3-yl)amino)-2-oxoethylidene)amino)oxy)-2-methylpropanoic acid], for which the MIC in assay [1] (setting [3]) and in assay [2] was 32 mg/L (≈ 58.1 µM) throughout.
Turning to `N=C(NC1CCNCC1)c1ccc(OC[C@H](O/N=C(\C(=O)N[C@@H]2C(=O)N(S(=O)(=O)O)[C@@H]2CN2CCOC2=O)c2csc(N)n2)C(=O)O)cc1` [Example 64, (S)-2-(((Z)-(1-(2-aminothiazol-4-yl)-2-oxo-2-(((3S,4R)-2-oxo-4-((2-oxooxazolidin-3-yl)methyl)-1-sulfoazetidin-3-yl)amino)ethylidene)amino)oxy)-3-(4-(N-(piperidin-4-yl)carbamimidoyl)phenoxy)propanoic acid], the MIC in assay [1] (setting [3]) was found to be 0.5 mg/L (≈ 0.691 µM); in assay [2] it was 0.25 mg/L (≈ 0.345 µM).
For the compound `CC(C)(O/N=C(\C(=O)N[C@@H]1C(=O)N(S(=O)(=O)O)[C@@H]1Cn1ncc(CNS(N)(=O)=O)n1)c1csc(N)n1)C(=O)O` [Example 65, 2-(((Z)-(1-(2-aminothiazol-4-yl)-2-oxo-2-(((3S,4R)-2-oxo-4-((4-((sulfamoylamino)methyl)-2H-1,2,3-triazol-2-yl)methyl)-1-sulfoazetidin-3-yl)amino)ethylidene)amino)oxy)-2-methylpropanoic acid], the MIC in assay [1] (setting [3]) and in assay [2] was 64 mg/L (≈ 105 µM) throughout.

The values above are taken from US10369138B2, “Monobactam organic compounds for the treatment of bacterial infections” (Novartis AG, priority 2014, dated 2019).
